# Assay results reported in patent US4810779A, “Decapeptides having hypotensive action and process for their preparation” (Enichem Elastomeri S.p.A., priority 1985, dated 1989).
# Where two headings read alike, the source gives them in different places. Where a SMILES comes first, the peptide text is derived from it. [ ]: non-standard residue; d: D form. pGlu = O=C1CC[C@@H](C(=O)O)N1; Orn = NCCC[C@H](N)C(=O)O
# What was measured:
# arterial pressure [1] = test: Effect of the decapeptides on arterial pressure (injection into femoral vein of anaesthetized rats); assay type: in vivo, C.D. male rats; details: for Duration of hypotensive effect / Pressure Difference Maximum / Pressure Difference Minimum / hypotensive effect (in words): femoral vein; for Duration of hypotensive effect / Pressure Difference Maximum / Pressure Difference Minimum: anaesthetized rats
# Description: (§1) The activity of the decapeptides of the present invention has been determined in vivo on C.D. male rats available from Charles-River Co., anesthetized by ethyl urethane.
# (§2) The effect on the arterial pressure and on bradykinin potentating has been studied by injecting into femoral vein a decapeptide (I) in an amount of from 0.3 to 0.2 mg/kg of body weight.
# Five C.D. male rats available from Charles River Co., of weight of 200-300 g, anaesthetized by ethyl urethane (1.75 g/kg by intraperitoneal way) are used.
# After tracheal cannulating, the right-hand carotid artery is isolated and connected by cannula to a Hewlett-Packard Model 1280 pressure transducer.
# From isolated left-hand carotid the arterial flow is recorded by means of Biotronex® electromagnetic flowmeter, and pressure variation wiith the (dp/dt), electrocardiogram (ECG) and the beats per minute (BPM) are recorded on Hewlett Packard Polygraph.
# The decapeptides of the present invention have been tested by being injected into right-hand femoral vein at the dose of 0.3-0.2 mg/kg of body weight, and compared to the decapeptide (II) of the prior art.
# bradykinin = test: Effect of decapeptides as bradykinin potentiators (injection into femoral vein soon before bradykinin); assay type: in vivo, Male C.D. rats; details: for Duration of hypotensive effect (t) / Pressure Difference Maximum / Pressure Difference Minimum: bradykinin potentiation, femoral vein soon before bradykinin; for potentiation of the hypotensive effect / activity of bradykinin (in words): in vivo, male rats
# Description: as §1, §2
# Male C.D. rats of Charles-River race are treated as described in Example 8, and submitted to test by bradykinin.
# Bradykinin is a physiologic peptide which, when injected into femoral vein, causes a fast but not long-lasting hypotensive effect, because it is rapidly degraded at pulmonary circulation level by the Angiotensin Conversion Enzyme (ACE).
# The peptides of the present invention are tested by being injected into the right-hand femoral vein soon before bradykinin, and comparing them to the decapeptide of the prior art.
# arterial pressure [2] = details: injected into the femoral vein of rats; cited from earlier work
# arterial pressure [3] = details: cited from earlier work
SMILES,Duration of hypotensive effect (arterial pressure [1]; 0.3 mg/kg) [min],Pressure Difference Maximum (arterial pressure [1]; 0.3 mg/kg) [mmHg],Pressure Difference Minimum (arterial pressure [1]; 0.3 mg/kg) [mmHg],Duration of hypotensive effect (t) (bradykinin; 0.3 mg/kg) [min],Pressure Difference Maximum (bradykinin; 0.3 mg/kg) [mmHg],Pressure Difference Minimum (bradykinin; 0.3 mg/kg) [mmHg],lowering in arterial pressure (arterial pressure [2]),potentiation of the activity of bradykinin (arterial pressure [2]),"eurhythmizing effect (arterial pressure [1]; in vivo, male rats)","hypotensive effect (in words) (arterial pressure [1]; in vivo, male rats)",potentiation of the hypotensive effect / activity of bradykinin (in words) (bradykinin),Duration of hypotensive effect (arterial pressure [1]; 0.2 mg/kg) [min],Pressure Difference Maximum (arterial pressure [1]; 0.2 mg/kg) [mmHg],Pressure Difference Minimum (arterial pressure [1]; 0.2 mg/kg) [mmHg],Duration of hypotensive effect (t) (bradykinin; 0.2 mg/kg) [min],Pressure Difference Maximum (bradykinin; 0.2 mg/kg) [mmHg],Pressure Difference Minimum (bradykinin; 0.2 mg/kg) [mmHg],antihypertensive action (arterial pressure [3]; administered orally),antihypertensive action (arterial pressure [3]; intravenous administration)
"CC[C@H](C)[C@H](NC(=O)[C@H](CCC(N)=O)NC(=O)[C@@H]1CCCN1C(=O)[C@H](CCCNC(=N)N)NC(=O)[C@@H]1CCCN1C(=O)[C@H](Cc1c[nH]c2ccccc12)NC(=O)[C@H](CC(C)C)NC(=O)[C@@H]1CCC(=O)N1)C(=O)N1CCC[C@H]1C(=O)N1CCC[C@H]1C(=O)O [Decapeptide II, Glp-Leu-Trp-Pro-Arg-Pro-Gln-Ile-Pro-Pro-OH, reference compound] ([pGlu]LWPRPQIPP-OH)",10,15,15,10,15,15,causes a lowering in arterial pressure,"potentiates the activity of bradykinin, prolonging the hypotensive effect thereof",,,,,,,,,,,
"CC[C@H](C)[C@H](NC(=O)[C@H](CCC(N)=O)NC(=O)[C@@H]1CCCN1C(=O)[C@H](CCCN)NC(=O)[C@@H]1CCCN1C(=O)[C@H](Cc1c[nH]c2ccccc12)NC(=O)[C@H](CC(C)C)NC(=O)[C@@H]1CCC(=O)N1)C(=O)N1CCC[C@H]1C(=O)N1CCC[C@H]1C(=O)O [Decapeptide III, Glp-Leu-Trp-Pro-Orn-Pro-Gln-Ile-Pro-Pro-OH] ([pGlu]LWP[Orn]PQIPP-OH)",> 10,20,25,90,15,15,,,shows an eurhythmizing effect,stronger and more long-lasting hypotensive effect than decapeptide (II),potentiates the hypotensive effect of bradykinin,,,,,,,,
"CC(C)C[C@H](NC(=O)[C@@H]1CCC(=O)N1)C(=O)N[C@@H](Cc1c[nH]c2ccccc12)C(=O)N1CCC[C@H]1C(=O)N[C@@H](CCCN)C(=O)N1CCC[C@H]1C(=O)N[C@@H](Cc1c[nH]cn1)C(=O)N[C@H](C(=O)N1CCC[C@H]1C(=O)N1CCC[C@H]1C(=O)O)C(C)C [Decapeptide IV, Glp-Leu-Trp-Pro-Orn-Pro-His-Val-Pro-Pro-OH] ([pGlu]LWP[Orn]PHVPP-OH)",,,,,,,,,,cause in vivo a hypotensive effect,potentiate the activity of bradykinin,< 10,20,25,45,25,30,,
"CC(C)C[C@H](NC(=O)[C@@H]1CCC(=O)N1)C(=O)N[C@@H](Cc1c[nH]c2ccccc12)C(=O)N1CCC[C@H]1C(=O)N[C@@H](CCCNC(=N)N)C(=O)N1CCC[C@H]1C(=O)N[C@@H](Cc1c[nH]cn1)C(=O)N[C@H](C(=O)N1CCC[C@H]1C(=O)N1CCC[C@H]1C(=O)O)C(C)C [Decapeptide V, Glp-Leu-Trp-Pro-Arg-Pro-His-Val-Pro-Pro-OH] ([pGlu]LWPRPHVPP-OH)",,,,,,,,,,cause in vivo a hypotensive effect,potentiate the activity of bradykinin,< 10,15,15,30,15,30,,
CC[C@H](C)[C@H](NC(=O)[C@H](CCC(N)=O)NC(=O)[C@@H]1CCCN1C(=O)[C@H](CCCNC(=N)N)NC(=O)[C@@H]1CCCN1C(=O)[C@H](Cc1c[nH]c2ccccc12)NC(=O)[C@@H]1CCC(=O)N1)C(=O)N1CCC[C@H]1C(=O)N1CCC[C@H]1C(=O)O [Teprotide],,,,,,,,,,,,,,,,,,inactive when administered orally,powerful antihypertensive agent
